Source: US11478440B2, “Combination of Elafibranor or derivatives thereof with an anti-NASH, anti-fibrotic or anti-cholestatic agent” (GENFIT, priority 2017, dated 2022)

Tests used:
HepG2 = assay: Intracellular lipid droplets (AdipoRed) in fat-loaded HepG2; type: cell-based, human; conditions: elafibranor 10 μM alone; FFA-treated
Experimental: The human hepatocyte carcinoma were cultured in DMEM 4.5 g/L glucose (Gibco cat #31053 that was supplemented with 10% fetal bovine serum (FBS, Gibco cat #10270), 1% penicillin/streptomycin (Gibco cat #15140), 1% MEM NEAA (Gibco cat #11140), 1% L-Glutamine (Gibco cat #25030), and 1% Sodium Pyruvate (Gibco cat #11360).
(§1) For these experiments, a checkerboard matrix was generated. ELA and component stocks were serially diluted in DMSO in 5-points series in a row (ELA) and a 11-points series in a column (component) of a 384-well plate. Subsequently, the 5×11 combination matrix was generated by 1:1 mixing of all single agent concentrations.
Oleic (#O1383) and palmitic (P0500) acids were purchased at Sigma. FFA stock solutions (100 mM) were prepared in 0.1M NaOH at 80° C. Working solutions of 4.5 mM palmitate/10% bovine serum albumin (BSA) and 9 mM oleate/10% BSA were prepared by complexing an appropriate volume of stock solution to 10% BSA (FFA-free low endotoxin; Sigma-Aldrich, Bornem, Belgium) in a 55° C. water bath (15 min). […]
To measure intracellular lipid droplets content, the cells were brought to room temperature and washed with 40 μL PBS. […] The relative fluorescence was measured (k excitation at 485 nm, k emission at 580 nm) using a fluorescence spectrometer (Spark Tecan cat #30086376 SN #1801002745). […]

3D Huh7 spheroids = assay: Lipid accumulation (AdipoRed) in 3D Huh7 spheroid culture under metabolic NASH stimulus; type: cell-based; conditions: Elafibranor 3 μM alone, Day 7
Experimental: Cryopreserved Huh7 were purchased from ECACC. Cells were grown in ULA plates (Costar), William's medium (Sigma) containing 10% FBS (Gibco) at 37° C. in a humidified 5% CO2 cell culture incubator. Cells aggregated and formed spheroids within 5 days.
as §1, with “component (ii)” for “component”, “2-points” for “5-points”, “3-points” for “11-points”, “(component (ii))” for “(component)”, “96-well” for “384-well”, “2×3” for “5×11”
3D Huh7 spheroids were cultured under standard conditions, as described above. They were then deprived for 24 hours in serum-free medium. For the treatments with ELA, component (ii) and the respective ELA/component (ii) combinations, the serum-deprived spheroids were treated with both a metabolic NASH stimulus and the compounds (Day 0) followed by the renewal of the metabolic NASH stimulus and the compounds at Day 4 for an additional 3 days period. The spheroids were stained for lipid accumulation at Day 7.
Intracellular lipid accumulation was quantified using the ADIPORED Assay Reagent (Lonza). Spheroids were subjected to fluorescence assay quantification at λexc: 485 nm and λem: 572 nm, using fluorescence plate reader (TECAN).

## 1-[4-methylthiophenyl]-3-[3,5-dimethyl-4-carboxydimethylmethyloxyphenyl]prop-2-en-1-one [Elafibranor]
HepG2
  reduction of fat accumulation: 20%
3D Huh7 spheroids
  reduction of fat content: 12%
